Experimental data as given in patent US9375002B2, “5-aminopyrimidine derivatives and use thereof for combating undesired plant growth” (BAYER INTELLECTUAL PROPERTY GMBH, priority 2012, dated 2016).

Tests used:
[1] = logp (HCOOH), physicochemical characterization; settings: for chromatographic logP: HCOOH (formic acid)
Alopecurus myosuroides = assay: Pre-emergence herbicidal effect; format: in vivo; settings: 1280 g/ha, visual assessment after 3 weeks
Source text: (§1) 1. Pre-Emergence Herbicidal Effect and Crop Plant Compatibility Seeds of monocotyledonous and dicotyledonous weed plants and crop plants are placed in wood-fiber pots in sandy loam and covered with soil. The inventive compounds, formulated in the form of wettable powders (WP) or as emulsion concentrates (EC), are then applied to the surface of the covering soil as an aqueous suspension or emulsion at a water application rate of 600 to 800 I/ha (converted) with addition of 0.2% wetting agent. After the treatment, the pots are placed in a greenhouse and kept under good growth conditions for the test plants. The damage to the test plants is assessed visually after a test period of 3 weeks by comparison with untreated controls (herbicidal activity in percent (%): 100% action=the plants have died, 0% action=like control plants). ABUTH: Abutilon theophrasti ALOMY: Alopecurus myosuroides

Amaranthus retroflexus [2] = assay: Pre-emergence herbicidal effect; format: in vivo; settings: 1280 g/ha, visual assessment after 3 weeks
Source text: as §1, with “AMARE: Amaranthus retroflexus ECHCG: Echinochloa crus-galli” for “ABUTH: Abutilon theophrasti ALOMY: Alopecurus myosuroides”

Lolium multiflorum = assay: Pre-emergence herbicidal effect; format: in vivo; settings: 1280 g/ha, visual assessment after 3 weeks
Source text: as §1, with “LOLMU: Lolium multiflorum MATIN: Matricaria inodora” for “ABUTH: Abutilon theophrasti ALOMY: Alopecurus myosuroides”

Matricaria inodora = assay: Pre-emergence herbicidal effect; format: in vivo; settings: 1280 g/ha, visual assessment after 3 weeks
Source text: as §1, with “LOLMU: Lolium multiflorum MATIN: Matricaria inodora” for “ABUTH: Abutilon theophrasti ALOMY: Alopecurus myosuroides”

Stellaria media = assay: Pre-emergence herbicidal effect; format: in vivo; settings: 1280 g/ha, visual assessment after 3 weeks
Source text: as §1, with “STEME: Stellaria media VERPE: Veronica persica” for “ABUTH: Abutilon theophrasti ALOMY: Alopecurus myosuroides”

Veronica persica [3] = assay: Pre-emergence herbicidal effect; format: in vivo; settings: 1280 g/ha, visual assessment after 3 weeks
Source text: as §1, with “STEME: Stellaria media VERPE: Veronica persica” for “ABUTH: Abutilon theophrasti ALOMY: Alopecurus myosuroides”

Viola tricolor = assay: Pre-emergence herbicidal effect; format: in vivo; settings: 1280 g/ha, visual assessment after 3 weeks
Source text: as §1, with “VIOTR: Viola tricolor” for “ABUTH: Abutilon theophrasti ALOMY: Alopecurus myosuroides”

Echinochloa crus-galli = assay: Pre-emergence herbicidal effect; format: in vivo; settings: 1280 g/ha, visual assessment after 3 weeks
Source text: as §1, with “AMARE: Amaranthus retroflexus ECHCG: Echinochloa crus-galli” for “ABUTH: Abutilon theophrasti ALOMY: Alopecurus myosuroides”

Polygonum convolvulus [4] = assay: Pre-emergence herbicidal effect; format: in vivo; settings: 1280 g/ha, visual assessment after 3 weeks
Source text: as §1, with “POLCO: Polygonum convolvulus SETVI: Setaria viridis” for “ABUTH: Abutilon theophrasti ALOMY: Alopecurus myosuroides”

Setaria viridis = assay: Pre-emergence herbicidal effect; format: in vivo; settings: 1280 g/ha, visual assessment after 3 weeks
Source text: as §1, with “POLCO: Polygonum convolvulus SETVI: Setaria viridis” for “ABUTH: Abutilon theophrasti ALOMY: Alopecurus myosuroides”

Amaranthus retroflexus [5] = assay: Post-emergence herbicidal effect; format: in vivo; settings: 1280 g/ha, visual rating after about 3 weeks
Protocol: (§2) AMARE: Amaranthus retroflexus ECHCG: Echinochloa crus-galli 2. Post-Emergence Herbicidal Effect and Crop Plant Compatibility Seeds of monocotyledonous and dicotyledonous weed and crop plants are placed in sandy loam in wood-fiber pots, covered with soil and cultivated in a greenhouse under good growth conditions. 2 to 3 weeks after sowing, the test plants are treated at the one-leaf stage. The compounds according to the invention, formulated in the form of wettable powders (WP) or as emulsion concentrates (EC), are then sprayed as aqueous suspension or emulsion at a water application rate of 600 to 800 I/ha (converted) with the addition of 0.2% of wetting agent onto the green parts of the plants. After the test plants have been kept in the greenhouse under optimum growth conditions for about 3 weeks, the activity of the preparations is rated visually in comparison to untreated controls (herbicidal activity in percent (%): 100% activity=the plants have died, 0% activity=like control plants).

Polygonum convolvulus [6] = assay: Post-emergence herbicidal effect; format: in vivo; settings: 1280 g/ha, visual rating after about 3 weeks
Protocol: as §2, with “POLCO: Polygonum convolvulus SETVI: Setaria viridis” for “AMARE: Amaranthus retroflexus ECHCG: Echinochloa crus-galli”

Veronica persica [7] = assay: Post-emergence herbicidal effect; format: in vivo; settings: 1280 g/ha, visual rating after about 3 weeks
Protocol: as §2, with “STEME: Stellaria media VERPE: Veronica persica” for “AMARE: Amaranthus retroflexus ECHCG: Echinochloa crus-galli”

Abutilon theophrasti = assay: Post-emergence herbicidal effect; format: in vivo; settings: 1280 g/ha, visual rating after about 3 weeks
Protocol: as §2, with “ABUTH: Abutilon theophrasti ALOMY: Alopecurus myosuroides” for “AMARE: Amaranthus retroflexus ECHCG: Echinochloa crus-galli”

## Cc1cc(C)c2c(c1)C(Nc1cnc(S(C)(=O)=O)nc1)CCO2 (racemic) [compound 62]
[1]
  logp (HCOOH): wax-like; logp (HCOOH): 4.06; 1H-NMR (CDCl3, 400 MHZ, δ in ppm): 2.10-2.35 (m,

## FC(F)(F)c1ncc(N[C@@H]2CCc3ccccc32)cn1 [Ex. 115, N-[(1R)-2,3-Dihydro-1H-inden-1-yl]-2-(trifluoromethyl)pyrimidine-5-amine]
[1]
  chromatographic logP: 3.05
other
  melting point: 123.7 °C

## CCc1ccc2c(c1)C(Nc1cnc(C(F)(F)F)nc1)CCO2 (racemic) [compound 70]
[1]
  logp (HCOOH): wax-like; logp (HCOOH): 3.41; 1H-NMR (CDCl3, 400 MHZ, δ in ppm): 1.15 (t, 3H,

## Cc1ccc2c(c1)[C@H](Nc1cnc(S(C)(=O)=O)nc1C(=O)NC1CC1)[C@@H](C)C2 [compound 139]
Alopecurus myosuroides
  herbicidal activity ALOMY: 90%
Amaranthus retroflexus [2]
  herbicidal activity AMARE: 100%
Lolium multiflorum
  herbicidal activity LOLMU: 100%
Matricaria inodora
  herbicidal activity MATIN: 100%
Stellaria media
  herbicidal activity STEME: 100%
Veronica persica [3]
  herbicidal activity VERPE: 100%
Viola tricolor
  herbicidal activity VIOTR: 100%

## CS(=O)(=O)c1ncc(N[C@@H]2CCc3ccccc32)cn1 [compound 131]
Echinochloa crus-galli
  herbicidal activity ECHCG: 100%
Matricaria inodora
  herbicidal activity MATIN: 100%
Polygonum convolvulus [4]
  herbicidal activity POLCO: 100%
Setaria viridis
  herbicidal activity SETVI: 90%
Stellaria media
  herbicidal activity STEME: 100%
Veronica persica [3]
  herbicidal activity VERPE: 100%
Amaranthus retroflexus [5]
  herbicidal activity AMARE: 80%
Polygonum convolvulus [6]
  herbicidal activity POLCO: 80%
Veronica persica [7]
  herbicidal activity VERPE: 80%

## CS(=O)(=O)c1ncc(N[C@@H]2CCCc3ccccc32)c(C(N)=O)n1 [compound 87]
[1]
  logp (HCOOH): wax-like; logp (HCOOH): 1.86; 1H-NMR (CDCl3, 400 MHZ, δ in ppm): 1.85 (m, 2H, 2H

## Cc1ccc2c(c1)[C@H](Nc1cnc(S(C)(=O)=O)nc1C(N)=O)[C@@H](C)C2 [compound 93, 5-{[(1R,2S)-2,6-Dimethyl-2,3-dihydro-1H-inden-1-yl]amino}-2-(methylsulfonyl)pyrimidine-4-carboxamide]
Alopecurus myosuroides
  herbicidal activity ALOMY: 90%
Amaranthus retroflexus [2]
  herbicidal activity AMARE: 100%
Echinochloa crus-galli
  herbicidal activity ECHCG: 100%
Lolium multiflorum
  herbicidal activity LOLMU: 90%
Matricaria inodora
  herbicidal activity MATIN: 100%
Polygonum convolvulus [4]
  herbicidal activity POLCO: 100%
Setaria viridis
  herbicidal activity SETVI: 90%
Stellaria media
  herbicidal activity STEME: 100%
Veronica persica [3]
  herbicidal activity VERPE: 100%
Viola tricolor
  herbicidal activity VIOTR: 100%
Amaranthus retroflexus [5]
  herbicidal activity AMARE: 80%
Abutilon theophrasti
  herbicidal activity ABUTH: 80%
[1]
  chromatographic logP: 2.21

## CCc1ccc2c(c1)C(Nc1cnc(C#N)nc1)CCO2 (centres unmarked) [Ex. 64, 5-[(6-Ethyl-3,4-dihydro-2H-chromen-4-yl)amino]pyrimidine-2-carbonitrile]
[1]
  chromatographic logP: 2.8

## Cc1ccc2c(c1)[C@H](Nc1cnc(S(C)(=O)=O)nc1C#N)[C@@H](C)C2 [compound 108]
[1]
  logp (HCOOH): solid; logp (HCOOH): 3.29; 1H-NMR (CDCl3, 400 MHZ, δ in ppm): 1.25 (d, 3H, CH3);

## Cc1ccc2c(c1)[C@H](Nc1cnc(C#N)nc1)[C@@H](C)C2 [compound 76]
[1]
  logp (HCOOH): wax-like; logp (HCOOH): 3.17; 1H-NMR (CDCl3, 400 MHZ, δ in ppm): 1.25 (d, 3H,

## CCc1ccc2c(c1)C(Nc1cnc(S(C)(=O)=O)nc1C#N)CCO2 (racemic) [compound 66]
Amaranthus retroflexus [2]
  herbicidal activity AMARE: 100%
Matricaria inodora
  herbicidal activity MATIN: 90%
Polygonum convolvulus [4]
  herbicidal activity POLCO: 90%
Stellaria media
  herbicidal activity STEME: 100%
Veronica persica [3]
  herbicidal activity VERPE: 100%
Viola tricolor
  herbicidal activity VIOTR: 100%
[1]
  logp (HCOOH): wax-like; logp (HCOOH): 2.54; 1H-NMR (CDCl3, 400 MHZ, δ in ppm): 1.15 (t, 3H,
